# Test results reported in patent US20230101768A1, “METHOD TO TREAT MANGANESE TOXICITY AND MANGANESE-INDUCED PA[…] HUMANS” (priority 2021, published 2023).
# Where two headings read alike, the source gives them in different places. Starred links: 1 amine or outer side, 2 acyl side, 3 side chain; linkers in the order of their positions; H or OH if unused. Positions of bridges follow the written chain, without caps; N, C: chain ends. Non-standard residues stand in square brackets, D forms with d. Residues, ends and D or L forms follow the SMILES beside them. Chains are numbered I, II in the order given. *: point of attachment. Actinocin(9to1) = Cc1c2oc3c(C)ccc(C(=O)[*:1])c3nc-2c(C(=O)[*:2])c(N)c1=O; NMeV = CN[C@H](C(=O)O)C(C)C; Cbz = O=C(OCc1ccccc1)*; Sar = CNCC(=O)O
# Tests used:
# SLC30A10 promoter = format: cell-based, human
# Text: A luciferase reporter plasmid containing the proximal promoter of human SLC30A10 has been previously described and was a gift of Dr. Ruth Valentine (100). The promoter fragment corresponding to bases −679 to +211 relative to the start of transcription was sub-cloned into the Xho1 and SpeI sites of pRRLSIN.cPPTLuciferase.WPRE vector (Addgene, #69251), which is a luciferase vector for lentivirus infections. Deletion mutants were generated using the loop-out modification of the QuikChange protocol.
# Lentiviral infections. Stable cells were generated by lentivirus infection essentially as described by us previously (49, 98). Briefly, lentivirus was produced in HEK293T cells by co-transfecting transfer plasmids described above with plasmids coding for a third generation packing system that is routinely used (pRSV-Rev, pRRE, and pCMV-VSVG) (49, 98). Viral supernatants were collected 40-48 h post-transfection. HepG2 cells for infection were plated in a 60 mm dish 24 h before infection so that cells reached a confluence of 30% on the day of infection. Collected viral supernatants were filtered through a 0.45-μm polyvinylidene difluoride filter, and cells were incubated with a 1:2 dilution of viral supernatant containing 5 μg/mL Polybrene (Santa Cruz). […]
# SLC30A10 [1] = format: cell-based, human; conditions: for SLC30A10 expression after prolyl hydroxylase inhibitor: indicated doses for 16 h or indicated times, no drug normalized to 1
# Procedure: (§1) Cells were treated with 0 or 250 μM manganese for 4 h, and gene expression was analyzed by qRT-PCR. For each transcript, expression without manganese treatment was normalized to 1. N=4. Data are mean±SE.
# (§2) Cell culture. HepG2 cells were grown in Eagle's modified essential medium (MEM; Corning) with 10% fetal bovine serum (Atlanta Biologicals), 100 IU/ml penicillin (Corning), and 100 μg/ml streptomycin (Corning). 293T cells were maintained in Dulbecco's modified essential medium/F12 (Thermo) supplemented with 10% fetal bovine serum, penicillin (100 IU/ml), and streptomycin (100 μg/ml). Human primary hepatocytes were purchased from XenoTech (catalog #HPCH10+) and cultured according to protocols provided by the supplier.
# (§3) manganese and drug treatments in cell culture. Cells were treated with indicated levels of manganese as manganeseCl2.4H2O (Fisher). Vehicle for manganese treatment was water. Prolyl hydroxylase inhibitors roxadustat (Caymen), vadadustat, and molidustat (both APE-Bio); the HIFα inhibitor LW6 (Selleckchem); the proteasomal inhibitor MG132 (Sigma); and the transcription inhibitor actinomycin D (Sigma) were dissolved in DMSO. […] Vehicle treatment for all drugs was DMSO.
# (§4) Quantitative RT-PCR assays. RNA extraction from HepG2 cells and mouse tissue, reverse transcription to cDNA, and qRT-PCR analyses were performed as described by us previously (47, 50). For analyses of mouse brain samples, a part of the midbrain, including the basal ganglia, was used. Transcript levels were quantified using the ΔΔCT method with 18S (in mice) or TBP (in HepG2 cells) as the internal control, also as described by us previously (47, 50).
# VEGF [2] = format: cell-based, human; conditions: HepG2 cells, 10 μM LW6 for 1 h then 250 μM manganese for 4 h
# Procedure: as §1, §2, §3, §4
# SLC30A10 [3] = format: cell-based; conditions: primary human hepatocytes; for SLC30A10 expression after prolyl hydroxylase inhibitor: 20 μM roxadustat or 80 μM vadadustat for 16 h
# Procedure: (§5) (A) and (B): qRT-PCR assays in cells treated with or without 10 μM LW6 for 1 h followed by 0 or 250 μM manganese for 4 h (A) or with or without 20 μM roxadustat or 80 μM vadadustat for 16 h (B). […] For (B), expression in the absence of drug treatment was normalized to 1. N=3. Mean±SE. *P<0.05 by t-test (A) or one-way ANOVA and Dunnett's post hoc test for the comparison between no drug and other conditions (B).
# as §2, §3, §4
# VEGF [4] = format: cell-based; conditions: primary human hepatocytes; for VEGF expression after prolyl hydroxylase inhibitor: 20 μM roxadustat or 80 μM vadadustat for 16 h
# Procedure: as §5, §2, §3, §4
# [5] = test system: prolyl hydroxylated HIF1α; format: cell-based, human
# Procedure: as §3
# (§6) Immunoblots. HepG2 cells were cultured in 35 mm dishes, treated with or without manganese, MG132 and/or prolyl hydroxylase inhibitors, and scrapped using 200 μl of RIPA buffer (50 mM Tris-HCl, pH7.4; 150 mM NaCl; 1Mm EDTA; 1% Triton; 0.25% sodium deoxycholate; protease inhibitors cocktail (Thermo A32953)). Whole-cell lysates were prepared by adding loading buffer (50 mM Tris-HCl, pH 7.4; 2% sodium dodecyl sulfate; 10% glycerol, 0.1 M dithiothreitol; 0.01% (weight/volume) bromophenol blue) and boiling the samples for 5 min. Equal volumes of samples were loaded per lane. Further processing was as described by us previously (47). Images were quantified using ImageQuant TL software (GE).
# (§7) Antibodies and chemicals. The inventors used the following commercial primary antibodies in this study: rabbit polyclonal anti-HIF1α (Abcam, Ab2185), rabbit polyclonal anti-HIF2α (Novus, NB100-122), rabbit monoclonal anti-HIF1α proline 564 (Cell signaling, 3434S), and mouse monoclonal anti-tubulin (Sigma, T5168). […] Sources of chemicals not provided elsewhere were Thermo Fisher Scientific or Sigma-Aldrich.
# SLC30A10 [6] = format: in vivo, mice; conditions: C57BL/6J mice, roxadustat 10 mg/kg daily i.p. for 4 weeks
# Procedure: A well-characterized drinking water-based manganese exposure regimen was used to model human environmental manganese exposure by providing mice with ˜50 mg manganeseCl2.4H2O/kg body weight daily (˜15 mg absolute manganese/kg per day) from birth until 8 weeks of age. This, and related similar, dosing regimens: 1) approximate the increase in manganese exposure in humans consuming well water contaminated with 1.5 mg manganese/L, which is the median well water concentration associated with neurological deficits in children; 2) increase brain manganese levels by ˜2-3 fold, similar to human patients; 3) produce measurable neurobehavioral deficits without overt toxicity; and 4) model exposure to manganese in developmentally-sensitive early-life and adolescent periods (11). Pre-weaning manganese was delivered by pipette directly into the mouth, and post-weaning manganese was delivered in drinking water using procedures described in detail in ref. (11). In brief, pre-weaning dosing was adjusted to each animal's body weight. For this, a stock solution of 69.2 mg absolute manganese/ml prepared in milliQ water was diluted in milliQ water containing 2.5% (wt/vol) of the natural sweetener Stevia (to facilitate intake by pups), and the required manganese amount (0.2 μl manganese stock/g body weight) was delivered in a dose of ˜5-10 μl/animal. For post-weaning exposure, a 27.7 mg absolute manganese/ml stock solution was prepared in water and diluted to 0.069 mg absolute manganese/ml in drinking water, which provided mice with ˜15 mg absolute manganese/kg per day based on a daily water intake of ˜2-5 ml/mouse depending on age.
# (§8) To assay for the protective effect of roxadustat, animals were exposed to roxadustat or vehicle with or without manganese in drinking water from ˜4 weeks of age. Treatment lasted for 4 weeks from initiation. Roxadustat (Selleckchem) was prepared as a 50 mg/ml stock solution in DMSO, then diluted to 1 mg/ml in sterile phosphate buffered saline (PBS), and delivered by daily i.p. injection at 10 mg/kg. Vehicle was 2% DMSO in PBS. For this experiment, drinking water manganese levels were adjusted to 0.138 mg absolute manganese/ml so that animals received ˜30 mg absolute manganese/kg daily. A higher level of manganese was used because exposure was initiated after weaning, which was necessary because daily i.p. injections for roxadustat delivery were not possible in the pre-weaning period.
# (§9) Animals were euthanized using carbon dioxide and tissue dissected for qRT-PCR or ICPMS analyses as described by us previously (50).
# as §4
# HIF2α = format: cell-based, human; conditions: HepG2 cells, 20 μM roxadustat, 80 μM vadadustat or 20 μM molidustat for 16 h
# Procedure: as §3, §6, §7
# HIF1α = format: cell-based, human; conditions: HepG2 cells, 20 μM roxadustat, 80 μM vadadustat or 20 μM molidustat for 16 h
# Procedure: as §3, §6, §7
# HepG2 cells [7] = experiment: MTT cell viability assay, manganese-induced cell death; format: cell-based, human; conditions: 20 μM roxadustat, 80 μM vadadustat or 20 μM molidustat for 16 h then manganese for 24 h
# Procedure: manganese and drug treatments in cell culture. […] Vehicle for manganese treatment was water. […] Vehicle treatment for all drugs was DMSO.
# Cell viability assays. These were performed using the 3-(4,5-dimethylthiazol-2-yl)-2,5-diphenyl tetrazolium bromide (MTT) reagent (Sigma) as described by us previously (47, 50).
# C57BL/6J mice [8] = conditions: roxadustat 10 mg/kg daily i.p. with or without manganese in drinking water, 4 weeks, two-way ANOVA
# Procedure: as §8, §9
# (§10) Inductively coupled plasma mass spectrometry. Metal measurements using ICP-MS were performed exactly as described by us previously (47, 50, 51, 99).
# HepG2 cells [9] = format: cell-based, human
# Procedure: as §2, §3, §10
# C57BL/6J mice [10] = test system: C57BL/6J mice
# Procedure: as §8
# Open-field assays for neurobehavior assessment. Open-field analyses were performed as described in a recent publication (51).
# [11] = 10 μM LW6 for 1 h then 250 μM manganese for 4 h
SMILES,SLC30A10 expression after prolyl hydroxylase inhibitor (SLC30A10 [1]; HepG2 cells),HIF2α protein levels after prolyl hydroxylase inhibitor (HIF2α),HIF1α protein levels after prolyl hydroxylase inhibitor (HIF1α),Protection against manganese-induced cell death (HepG2 cells [7]),"Intracellular Fe, Cu, and Zn levels (HepG2 cells [9])",Intracellular manganese in cells not exposed to manganese (HepG2 cells [9]),"Intracellular manganese levels under elevated manganese exposure, versus controls (HepG2 cells [9])",SLC30A10 expression after prolyl hydroxylase inhibitor (SLC30A10 [3]),VEGF expression after prolyl hydroxylase inhibitor (VEGF [4]),also measured
"COC(=O)c1ccc(O)c(NC(=O)COc2ccc(C34CC5CC(CC(C5)C3)C4)cc2)c1 [LW6, reference compound]",,,,,,,,,,"Effect of LW6 on manganese-induced increase in activity of SLC30A10 promoter luciferase reporter (SLC30A10 promoter): abolished; Effect of LW6 on manganese-induced upregulation of SLC30A10 (SLC30A10 [1]; HepG2 cells, 10 μM LW6 for 1 h then 250 μM manganese for 4 h): robustly blocked; Effect of LW6 on manganese-induced upregulation of VEGF (VEGF [2]): robustly blocked; Effect of LW6 on manganese-induced increase of SLC30A10 expression (SLC30A10 [3]; [11]): inhibited; Effect of LW6 on manganese-induced increase of VEGF expression (VEGF [4]; [11]): inhibited"
"CC(C)C[C@@H](C=O)NC(=O)[C@H](CC(C)C)NC(=O)[C@H](CC(C)C)NC(=O)OCc1ccccc1 [MG132, reference compound] (Cbz-Leu-Leu-Leu-aldehyde)",,,,,,,,,,Prolyl hydroxylated HIF1α after proteasome inhibition [5]: accumulation
"Cc1c2oc3c(C)ccc(C(=O)N[C@@H]4C(=O)N[C@H](C(C)C)C(=O)N5CCC[C@H]5C(=O)N(C)CC(=O)N(C)[C@@H](C(C)C)C(=O)O[C@@H]4C)c3nc-2c(C(=O)N[C@@H]2C(=O)N[C@H](C(C)C)C(=O)N3CCC[C@H]3C(=O)N(C)CC(=O)N(C)[C@@H](C(C)C)C(=O)O[C@@H]2C)c(N)c1=O [actinomycin D, reference compound] (I: T[dV]P[Sar][NMeV] / II: T[dV]P[Sar][NMeV]; ester I:1-I:C, II:1-II:C; linker I:N-II:N via Actinocin(9to1))",,,,,,,,,,Effect of actinomycin D on increase in SLC30A10 mRNA after manganese exposure (SLC30A10 [1]): blocked
"Cc1nc(C(=O)NCC(=O)O)c(O)c2ccc(Oc3ccccc3)cc12 [roxadustat, 2-[(4-hydroxy-1-methyl-7-phenoxyisoquinoline-3-carbonyl)amino]acetic acid]",enhanced,increased,increased,protected,no effect,did not impact,significantly lower,increased,increased,"Brain SLC30A10 levels (SLC30A10 [6]): did not impact; Intestinal SLC30A10 levels (SLC30A10 [6]): increased; Brain manganese levels, main effect of roxadustat (C57BL/6J mice [8]): reducing; Open-field activity, roxadustat treatment by itself (C57BL/6J mice [10]; C57BL/6J mice, roxadustat 10 mg/kg daily i.p. for 4 weeks, no manganese): did not impact; Hypo-locomotor phenotype (reduced vertical movement) in mice treated with manganese and roxadustat (C57BL/6J mice [10]; mouse, in vivo): not detected"
"O=C(O)CNC(=O)c1ncc(-c2cccc(Cl)c2)cc1O [vadadustat, 2-[[5-(3-chlorophenyl)-3-hydroxypyridine-2-carbonyl]amino]acetic acid]",enhanced,increased,increased,protected,no effect,did not impact,significantly lower,increased,increased,
